Assays:
Type in all cases: in vivo
Conditions in all cases: treatment dosage 320 g/ha
[1] = tested on: redroot pigweed; test: Test Example 3: weedkilling efficacy through soil treatment; L: redroot pigweed
Procedure, shortened: (§1)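 Crop and weed responses were judged three weeks after a uniform surface spray of the water-diluted emulsion at the given g/ha rate. Seeds sat beneath about 1.5 cm of sterilized diluvial soil, and boxes stood in a greenhouse at 25 to 30° C.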

[2] = tested on: common wind-grass; test: Test Example 4: weedkilling efficacy by foliar treatment; J: common wind-grass
Procedure, shortened: (§2)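 Seeds are spot-sown into sterilized diluvial soil and covered with about 1.5 cm of soil. After 14 days' greenhouse growth at 25 to 30° C, plants are sprayed on stems and leaves with diluted emulsion at the stated g/ha rate, then scored at 3 weeks.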

[3] = tested on: Indian mallow; test: Test Example 4: weedkilling efficacy by foliar treatment; K: Indian mallow
Procedure, shortened: as §2

[4] = tested on: wheat; test: Test Example 3: soil treatment, effect on crop; e: wheat
Procedure, shortened: as §1

[5] = tested on: rapeseed; test: Test Example 4: foliar treatment, effect on crop; g: rapeseed
Procedure, shortened: as §2

[6] = tested on: Italian ryegrass; test: Test Example 4: weedkilling efficacy by foliar treatment; I: Italian ryegrass
Procedure, shortened: as §2

[7] = tested on: wheat; test: Test Example 4: foliar treatment, effect on crop; e: wheat
Procedure, shortened: as §2

[8] = tested on: green foxtail; test: Test Example 3: weedkilling efficacy through soil treatment; E: green foxtail
Procedure, shortened: as §1

[9] = tested on: fig-leafed goosefoot; test: Test Example 3: weedkilling efficacy through soil treatment; M: fig-leafed goosefoot
Procedure, shortened: as §1

[10] = tested on: wild oat; test: Test Example 3: weedkilling efficacy through soil treatment; G: wild oat
Procedure, shortened: as §1

[11] = tested on: bulrush; test: Test Example 2: weedkilling efficacy, growth period weed treatment in the submerged state; B: bulrush
Procedure, shortened: (§3)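 Weeds treated at the 1-2 leaf stage by application of diluted emulsion onto floodwater (4 cm depth, alluvial soil) at specified g/ha. Grown in greenhouse at 25 to 30° C; herbicidal effect rated three weeks after treatment.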

[12] = tested on: birds-eye speedwell; test: Test Example 3: weedkilling efficacy through soil treatment; p: birds-eye speedwell
Procedure, shortened: as §1

[13] = tested on: soybean; test: Test Example 4: foliar treatment, effect on crop; d: soybean
Procedure, shortened: as §2

[14] = tested on: catchweed; test: Test Example 4: weedkilling efficacy by foliar treatment; O: catchweed
Procedure, shortened: as §2

[15] = tested on: barnyard grass; test: Test Example 4: weedkilling efficacy by foliar treatment; F: barnyard grass
Procedure, shortened: as §2

[16] = tested on: corn; test: Test Example 3: soil treatment, effect on crop; c: corn
Procedure, shortened: as §1

[17] = tested on: green foxtail; test: Test Example 4: weedkilling efficacy by foliar treatment; E: green foxtail
Procedure, shortened: as §2

[18] = tested on: beet; test: Test Example 3: soil treatment, effect on crop; f: beet
Procedure, shortened: as §1

[19] = tested on: rapeseed; test: Test Example 3: soil treatment, effect on crop; g: rapeseed
Procedure, shortened: as §1

[20] = tested on: crabgrass; test: Test Example 3: weedkilling efficacy through soil treatment; D: crabgrass
Procedure, shortened: as §1

[21] = tested on: black-grass; test: Test Example 4: weedkilling efficacy by foliar treatment; H: black-grass
Procedure, shortened: as §2

[22] = tested on: crabgrass; test: Test Example 4: weedkilling efficacy by foliar treatment; D: crabgrass
Procedure, shortened: as §2

[23] = tested on: catchweed; test: Test Example 3: weedkilling efficacy through soil treatment; O: catchweed
Procedure, shortened: as §1

[24] = tested on: common wind-grass; test: Test Example 3: weedkilling efficacy through soil treatment; J: common wind-grass
Procedure, shortened: as §1

[25] = tested on: redroot pigweed; test: Test Example 4: weedkilling efficacy by foliar treatment; L: redroot pigweed
Procedure, shortened: as §2

[26] = tested on: barnyard grass; test: Test Example 2: weedkilling efficacy, growth period weed treatment in the submerged state; A: barnyard grass
Procedure, shortened: as §3

[27] = tested on: chickweed; test: Test Example 3: weedkilling efficacy through soil treatment; N: chickweed
Procedure, shortened: as §1

[28] = tested on: wild oat; test: Test Example 4: weedkilling efficacy by foliar treatment; G: wild oat
Procedure, shortened: as §2

[29] = tested on: oval-leafed pondweed; test: Test Example 2: weedkilling efficacy, growth period weed treatment in the submerged state; C: oval-leafed pondweed
Procedure, shortened: as §3

[30] = tested on: birds-eye speedwell; test: Test Example 4: weedkilling efficacy by foliar treatment; p: birds-eye speedwell
Procedure, shortened: as §2

[31] = tested on: chickweed; test: Test Example 4: weedkilling efficacy by foliar treatment; N: chickweed
Procedure, shortened: as §2

[32] = tested on: Indian mallow; test: Test Example 3: weedkilling efficacy through soil treatment; K: Indian mallow
Procedure, shortened: as §1

[33] = tested on: barnyard grass; test: Test Example 3: weedkilling efficacy through soil treatment; F: barnyard grass
Procedure, shortened: as §1

[34] = tested on: Italian ryegrass; test: Test Example 3: weedkilling efficacy through soil treatment; I: Italian ryegrass
Procedure, shortened: as §1

[35] = tested on: directly sown rice; test: Test Example 3: soil treatment, effect on crop; b: directly sown rice
Procedure, shortened: as §1

[36] = tested on: bulrush; test: Test Example 1: weedkilling efficacy, preemergent weed treatment in the submerged state; B: bulrush
Procedure, shortened: (§4)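 Pots of alluvial soil were flooded to a 4 cm depth. Mixed weed seeds were sown and 2.5 leaf-stage rice seedlings transplanted. On sowing day, water-diluted emulsion was applied to the water surface (dose in g/ha). After 3 weeks at 25–30 °C, effects were rated.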

[37] = tested on: barnyard grass; test: Test Example 1: weedkilling efficacy, preemergent weed treatment in the submerged state; A: barnyard grass
Procedure, shortened: as §4

[38] = tested on: soybean; test: Test Example 3: soil treatment, effect on crop; d: soybean
Procedure, shortened: as §1

[39] = tested on: oval-leafed pondweed; test: Test Example 1: weedkilling efficacy, preemergent weed treatment in the submerged state; C: oval-leafed pondweed
Procedure, shortened: as §4

[40] = tested on: fig-leafed goosefoot; test: Test Example 4: weedkilling efficacy by foliar treatment; M: fig-leafed goosefoot
Procedure, shortened: as §2

[41] = tested on: corn; test: Test Example 4: foliar treatment, effect on crop; c: corn
Procedure, shortened: as §2

[42] = tested on: black-grass; test: Test Example 3: weedkilling efficacy through soil treatment; H: black-grass
Procedure, shortened: as §1

[43] = tested on: directly sown rice; test: Test Example 4: foliar treatment, effect on crop; b: directly sown rice
Procedure, shortened: as §2

[44] = tested on: beet; test: Test Example 4: foliar treatment, effect on crop; f: beet
Procedure, shortened: as §2

[45] = tested on: transplanted rice; test: Test Example 1: preemergent weed treatment in the submerged state, effect on crop; a: transplanted rice
Procedure, shortened: as §4

COc1cc(C(F)(F)F)cc(NC(=O)C(C)(C)N2COC(C)=C(c3cccnc3F)C2=O)n1 [B-2-14]
L (redroot pigweed) weedkilling efficacy grade [1]: 3 (weed kill ratio 40% or more, less than 70%)
J (common wind-grass) weedkilling efficacy grade [2]: 5 (weed kill ratio 90% or more, (practically complete withering))
K (Indian mallow) weedkilling efficacy grade [3]: 5 (weed kill ratio 90% or more, (practically complete withering))
e (wheat) effect on crop grade [4]: 0 (weed kill ratio 5% or less (practically no effect))
g (rapeseed) effect on crop grade [5]: 4 (weed kill ratio 70% or more, less than 90%)
I (Italian ryegrass) weedkilling efficacy grade [6]: 5 (weed kill ratio 90% or more, (practically complete withering))
e (wheat) effect on crop grade [7]: 0 (weed kill ratio 5% or less (practically no effect))
E (green foxtail) weedkilling efficacy grade [8]: 5 (weed kill ratio 90% or more, (practically complete withering))
M (fig-leafed goosefoot) weedkilling efficacy grade [9]: 3 (weed kill ratio 40% or more, less than 70%)
G (wild oat) weedkilling efficacy grade [10]: 5 (weed kill ratio 90% or more, (practically complete withering))
B (bulrush) weedkilling efficacy grade [11]: 4 (weed kill ratio 70% or more, less than 90%)
P (birds-eye speedwell) weedkilling efficacy grade [12]: 4 (weed kill ratio 70% or more, less than 90%)
d (soybean) effect on crop grade [13]: 3 (weed kill ratio 40% or more, less than 70%)
O (catchweed) weedkilling efficacy grade [14]: 4 (weed kill ratio 70% or more, less than 90%)
F (barnyard grass) weedkilling efficacy grade [15]: 4 (weed kill ratio 70% or more, less than 90%)
c (corn) effect on crop grade [16]: 0 (weed kill ratio 5% or less (practically no effect))
E (green foxtail) weedkilling efficacy grade [17]: 5 (weed kill ratio 90% or more, (practically complete withering))
f (beet) effect on crop grade [18]: 3 (weed kill ratio 40% or more, less than 70%)
g (rapeseed) effect on crop grade [19]: 1 (weed kill ratio 5% or more, less than 20%)
D (crabgrass) weedkilling efficacy grade [20]: 5 (weed kill ratio 90% or more, (practically complete withering))
H (black-grass) weedkilling efficacy grade [21]: 5 (weed kill ratio 90% or more, (practically complete withering))
D (crabgrass) weedkilling efficacy grade [22]: 4 (weed kill ratio 70% or more, less than 90%)
O (catchweed) weedkilling efficacy grade [23]: 4 (weed kill ratio 70% or more, less than 90%)
J (common wind-grass) weedkilling efficacy grade [24]: 5 (weed kill ratio 90% or more, (practically complete withering))
L (redroot pigweed) weedkilling efficacy grade [25]: 4 (weed kill ratio 70% or more, less than 90%)
A (barnyard grass) weedkilling efficacy grade [26]: 4 (weed kill ratio 70% or more, less than 90%)
N (chickweed) weedkilling efficacy grade [27]: 3 (weed kill ratio 40% or more, less than 70%)
G (wild oat) weedkilling efficacy grade [28]: 4 (weed kill ratio 70% or more, less than 90%)
C (oval-leafed pondweed) weedkilling efficacy grade [29]: 4 (weed kill ratio 70% or more, less than 90%)
P (birds-eye speedwell) weedkilling efficacy grade [30]: 4 (weed kill ratio 70% or more, less than 90%)
N (chickweed) weedkilling efficacy grade [31]: 4 (weed kill ratio 70% or more, less than 90%)
K (Indian mallow) weedkilling efficacy grade [32]: 0 (weed kill ratio 5% or less (practically no effect))
F (barnyard grass) weedkilling efficacy grade [33]: 5 (weed kill ratio 90% or more, (practically complete withering))
I (Italian ryegrass) weedkilling efficacy grade [34]: 5 (weed kill ratio 90% or more, (practically complete withering))
b (directly sown rice) effect on crop grade [35]: 4 (weed kill ratio 70% or more, less than 90%)
B (bulrush) weedkilling efficacy grade [36]: 5 (weed kill ratio 90% or more, (practically complete withering))
A (barnyard grass) weedkilling efficacy grade [37]: 5 (weed kill ratio 90% or more, (practically complete withering))
d (soybean) effect on crop grade [38]: 0 (weed kill ratio 5% or less (practically no effect))
C (oval-leafed pondweed) weedkilling efficacy grade [39]: 4 (weed kill ratio 70% or more, less than 90%)
M (fig-leafed goosefoot) weedkilling efficacy grade [40]: 4 (weed kill ratio 70% or more, less than 90%)
c (corn) effect on crop grade [41]: 3 (weed kill ratio 40% or more, less than 70%)
H (black-grass) weedkilling efficacy grade [42]: 5 (weed kill ratio 90% or more, (practically complete withering))
b (directly sown rice) effect on crop grade [43]: 3 (weed kill ratio 40% or more, less than 70%)
f (beet) effect on crop grade [44]: 3 (weed kill ratio 40% or more, less than 70%)
a (transplanted rice) effect on crop grade [45]: 3 (weed kill ratio 40% or more, less than 70%)
